Assay results reported in patent publication US20040082635A1, “Fused cyclic compounds and medicinal use thereof” (priority 2001, published 2004).
Counter-ions that a name gives are not always drawn. Like-named read-outs stand apart in the source and are kept apart here.

Target: T1, HCV polymerase (Hepatitis C virus genotype 1b, UniProt P26663)
T1 construct: a region encoding NS5B (591 amino acids; J Virol 1991 Mar, 65(3), 1105-13) was amplified by PCR; 6 His (N); made in house; host or cells: Escherichia coli
T1 sequence (P26663 2420-3010): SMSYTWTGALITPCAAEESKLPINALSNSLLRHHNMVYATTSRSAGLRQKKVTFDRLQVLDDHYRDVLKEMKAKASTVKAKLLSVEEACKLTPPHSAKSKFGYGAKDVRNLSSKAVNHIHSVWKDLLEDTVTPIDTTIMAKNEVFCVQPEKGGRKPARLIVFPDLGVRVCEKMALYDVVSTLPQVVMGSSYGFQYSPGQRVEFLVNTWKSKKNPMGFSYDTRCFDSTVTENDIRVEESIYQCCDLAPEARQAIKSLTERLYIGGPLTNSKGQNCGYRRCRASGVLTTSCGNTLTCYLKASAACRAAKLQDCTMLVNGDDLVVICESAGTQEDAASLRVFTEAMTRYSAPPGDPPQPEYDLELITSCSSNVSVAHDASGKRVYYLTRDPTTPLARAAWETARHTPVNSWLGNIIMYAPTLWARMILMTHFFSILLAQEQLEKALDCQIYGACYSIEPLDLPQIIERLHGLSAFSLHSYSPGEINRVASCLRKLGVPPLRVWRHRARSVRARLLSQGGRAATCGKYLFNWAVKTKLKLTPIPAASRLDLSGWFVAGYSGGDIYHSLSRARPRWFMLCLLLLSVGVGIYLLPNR
Test: biochemical

[1] = read-out: HCV polymerase inhibitory activity IC50
[2] = HCV polymerase inhibitory activity IC50

Row | SMILES | IC50 [1] [nM] | IC50 [2] [nM]
1 | Cc1nc(COc2cccc(Oc3ccc(-c4nc5cc(C(=O)O)ccc5n4C4CCCCC4)cc3)c2)cs1 [Example 220, 1-cyclohexyl-2-{4-[3-{(2-methyl-4-thiazolyl)methoxy}phenoxy]-phenyl}benzimidazole-5-carboxylic acid] | 73 | –
2 | Cc1nc(C)c(COc2cccc(Oc3ccc(-c4nc5cc(C(=O)O)ccc5n4C4CCCCC4)cc3)c2)s1 [Example 221, 1-cyclohexyl-2-{4-[3-{(2,4-dimethyl-5-thiazolyl)methoxy}phenoxy]-phenyl}benzimidazole-5-carboxylic acid] | 58 | –
3 | O=C(O)c1ccc2c(c1)nc(-c1ccc(Oc3cccc(-c4cc(Cl)cc(Cl)c4)c3)cc1)n2C1CCCCC1 [Example 222, 1-cyclohexyl-2-{4-[3-(3,5-dichlorophenyl)phenoxy]phenyl}-benzimidazole-5-carboxylic acid] | 41 | –
4 | O=C(O)c1ccc2c(c1)nc(-c1ccc(OC3CCN(Cc4ccc(Cl)cc4)CC3)cc1)n2C1CCCCC1 [Example 223, 2-{4-[1-(4-chlorobenzyl)-4-piperidyloxy]phenyl}-1-cyclohexylbenzimidazole-5-carboxylic acid] | 210 | –
5 | NC(=O)c1ccc(COc2ccc(-c3nc4cc(C(=O)O)ccc4n3C3CCCCC3)cc2)c(-c2ccc(Cl)cc2)c1 [Example 225, 2-{4-[4-carbamoyl-2-(4-chlorophenyl)benzyloxy]phenyl}-1-cyclohexylbenzimidazole-5-carboxylic acid] | 14 | –
6 | O=C(O)c1ccc2c(c1)nc(-c1ccc(Oc3cccc(OCc4ccnc(Cl)c4)c3)cc1)n2C1CCCCC1 [Example 227, 2-{4-[3-{(2-chloro-4-pyridyl)methoxy}phenoxy]phenyl}-1-cyclohexylbenzimidazole-5-carboxylic acid] | 45 | –
7 | CN(C)C(=O)c1ccc(N2CCC[C@H]2COc2ccc(-c3nc4cc(C(=O)O)ccc4n3C3CCCCC3)cc2)cc1 [Example 228, 2-{4-[{(2S)-1-(4-dimethylcarbamoylphenyl)-2-pyrrolidinyl}-methoxy]phenyl}-1-cyclohexylbenzimidazole-5-carboxylic acid] | 180 | –
8 | CCOC(=O)c1ccc(-c2ccc(Cl)cc2)c(COc2ccc(-c3nc4cc(C(=O)O)ccc4n3C3CCCCC3)cc2)c1 [Example 229, 2-{4-[2-(4-chlorophenyl)-5-ethoxycarbonylbenzyloxy]phenyl}-1-cyclohexylbenzimidazole-5-carboxylic acid] | 22 | –
9 | O=C(O)c1ccc2c(c1)nc(-c1ccc(Oc3cccc(C(F)(F)F)c3)cc1)n2C1CCCCC1 [Example 230, 1-cyclohexyl-2-[4-(3-trifluoromethylphenoxy)phenyl]-benzimidazole-5-carboxylic acid] | 170 | –
10 | Cc1nc(-c2ccc(C(=O)N(C)C)cc2)c(COc2ccc(-c3nc4cc(C(=O)O)ccc4n3C3CCCCC3)cc2)s1 [Example 231, 1-cyclohexyl-2-{4-[{4-(4-dimethylcarbamoylphenyl)-2-methyl-5-thiazolyl}methoxy]phenyl}benzimidazole-5-carboxylic acid] | 73 | –
11 | CN(C)C(=O)c1ccc(-c2ccc(Cl)cc2)c(COc2ccc(-c3nc4cc(C(=O)O)ccc4n3C3CCCCC3)cc2)c1 [Example 232, 2-{4-[2-(4-chlorophenyl)-5-dimethylcarbamoylbenzyloxy]phenyl}-1-cyclohexylbenzimidazole-5-carboxylic acid] | – | 15
12 | O=C(O)c1ccc2c(c1)nc(-c1ccc(OCc3cccnc3-c3ccc(Cl)cc3)cc1)n2C1CCCCC1 [Example 234, 2-{4-[{2-(4-chlorophenyl)-3-pyridyl}methoxy]phenyl}-1-cyclohexylbenzimidazole-5-carboxylic acid dihydrochloride] | 22 | –
13 | O=C(O)c1ccc2c(c1)nc(-c1ccc(OCc3ncccc3-c3ccc(Cl)cc3)cc1)n2C1CCCCC1 [Example 235, 2-{4-[{3-(4-chlorophenyl)-2-pyridyl}methoxy]phenyl}-1-cyclohexylbenzimidazole-5-carboxylic acid] | 36 | –
14 | CNc1nc(Oc2ccc(-c3nc4cc(C(=O)O)ccc4n3C3CCCCC3)cc2)nc(-c2cccc(Cl)c2)n1 [Example 236, 2-{4-[2-(3-chlorophenyl)-4-methylamino-1,3,5-triazin-6-yloxy]phenyl}-1-cyclohexylbenzimidazole-5-carboxylic acid trifluoroacetate] | 75 | –
15 | O=C(O)c1ccc2c(c1)nc(-c1ccc(OCc3ccc(-c4nnn[nH]4)cc3-c3ccc(Cl)cc3)cc1)n2C1CCCCC1 [Example 237, 2-{4-[2-(4-chlorophenyl)-4-(5-tetrazolyl)benzyloxy]phenyl}-1-cyclohexylbenzimidazole-5-carboxylic acid] | 15 | –
16 | O=C(O)c1ccc2c(c1)nc(-c1ccc(Oc3cc(OCc4ccccc4)ncn3)cc1)n2C1CCCCC1 [Example 238, 2-[4-(4-benzyloxy-6-pyrimidinyloxy)phenyl]-1-cyclohexylbenzimidazole-5-carboxylic acid] | 190 | –

Row | SMILES | IC50 [1] [nM] | IC50 [2] [nM]
17 | O=C(O)c1ccc2c(c1)nc(-c1ccc(Oc3cc(OCc4ccncc4)ncn3)cc1)n2C1CCCCC1 [Example 239, 1-cyclohexyl-2-{4-[4-(4-pyridylmethoxy)-6-pyrimidinyloxy]phenyl}-benzimidazole-5-carboxylic acid] | 170 | –
18 | CNC(=O)c1ccc(-c2ccc(Cl)cc2)c(COc2ccc(-c3nc4cc(C(=O)O)ccc4n3C3CCCCC3)cc2)c1 [Example 248, 2-{4-[2-(4-chlorophenyl)-5-methylcarbamoylbenzyloxy]phenyl}-1-cyclohexylbenzimidazole-5-carboxylate hydrochloride] | 12 | –
19 | CC(C)(C)NS(=O)(=O)c1ccc(-c2ccc(Cl)cc2)c(COc2ccc(-c3nc4cc(C(=O)O)ccc4n3C3CCCCC3)cc2)c1 [Example 249, 2-{4-[3-(tert-butylsulfamoyl)-6-(4-chlorophenyl)benzyloxy]-phenyl}-1-cyclohexylbenzimidazole-5-carboxylic acid] | 22 | –
20 | O=C(O)c1ccc2c(c1)nc(-c1ccc(COc3ccccc3-c3ccccc3)s1)n2C1CCCCC1 [Example 252, 2-[2-(2-biphenylyloxymethyl)-5-thienyl]-1-cyclohexylbenzimidazole-5-carboxylic acid] | 320 | –
21 | O=C(O)c1ccc2c(c1)nc(-c1ccc(COc3ccccc3-c3ccccc3)o1)n2C1CCCCC1 [Example 253, 2-[2-(2-biphenylyloxymethyl)-5-furyl]-1-cyclohexylbenzimidazole-5-carboxylic acid] | 650 | –
22 | O=C(O)c1ccc2c(c1)nc(-c1ccc(OCc3sc(CO)nc3-c3ccc(F)cc3)cc1)n2C1CCCCC1 [Example 254, 1-cyclohexyl-2-{4-[{4-(4-fluorophenyl)-2-hydroxymethyl-5-thiazolyl}methoxy]phenyl}benzimidazole-5-carboxylic acid] | 38 | –
23 | Cc1nc(-c2ccc(C(=O)O)cc2)c(COc2ccc(-c3nc4cc(C(=O)O)ccc4n3C3CCCCC3)cc2)s1 [Example 255, 1-cyclohexyl-2-{4-[{4-(4-carboxyphenyl)-2-methyl-5-thiazolyl}-methoxy]phenyl}benzimidazole-5-carboxylic acid hydrochloride] | 38 | –
24 | O=C(O)c1ccc2c(c1)nc(-c1ccc(OCc3ccc(F)cc3C(=O)c3cccc(F)c3)cc1F)n2C1CCCCC1 [Example 256, 1-cyclohexyl-2-{2-fluoro-4-[4-fluoro-2-(3-fluorobenzoyl)benzyloxy]phenyl}benzimidazole-5-carboxylic acid] | 79 | –
25 | COc1ccc(-c2ccc(Cl)cc2)c(COc2ccc(-c3nc4cc(S(=O)(=O)O)ccc4n3C3CCCCC3)cc2)c1 [Example 257, 2-{4-[2-(4-chlorophenyl)-5-methoxybenzyloxy]phenyl}-1-cyclohexylbenzimidazole-5-sulfonic acid] | 74 | –
26 | CN(C)C(=O)c1cc(OCc2ccncc2)cc(Oc2ccc(-c3nc4cc(C(=O)O)ccc4n3C3CCCCC3)cc2)c1 [Example 259, 1-cyclohexyl-2-{4-[3-dimethylcarbamoyl-5-(4-pyridylmethoxy)-phenoxy]phenyl}benzimidazole-5-carboxylic acid dihydrochloride] | 100 | –
27 | O=C(O)c1cc(OCc2ccncc2)cc(Oc2ccc(-c3nc4cc(C(=O)O)ccc4n3C3CCCCC3)cc2)c1 [Example 260, 1-cyclohexyl-2-{4-[3-carboxy-5-(4-pyridylmethoxy)phenoxy]-phenyl}benzimidazole-5-carboxylic acid dihydrochloride] | 270 | –
28 | O=C(O)c1ccc(-c2ncccc2COc2ccc(-c3nc4cc(C(=O)O)ccc4n3C3CCCCC3)cc2)cc1 [Example 263, 2-{4-[{2-(4-carboxyphenyl)-3-pyridyl}methoxy]phenyl}-1-cyclohexylbenzimidazole-5-carboxylic acid] | 35 | –
29 | COc1ccc(-c2ccc(Cl)cc2)c(COc2ccc(-c3nc4cc(C(=O)O)ccc4n3C3CCSCC3)cc2)c1 [Example 264, 2-{4-[2-(4-chlorophenyl)-5-methoxybenzyloxy]phenyl}-1-(4-tetrahydrothiopyranyl)benzimidazole-5-carboxylic acid] | < 10 | –
30 | CN(C)C(=O)c1ccc(-c2ccc(Cl)cc2)c(COc2ccc(-c3nc4cc(C(=O)O)ccc4n3C3CCCCC3)cc2)c1 [Example 265, 2-{4-[2-(4-chlorophenyl)-5-dimethylcarbamoylbenzyloxy]phenyl}-1-cyclohexylbenzimidazole-5-carboxylic acid hydrochloride] | – | 14
31 | CN(C)C(=O)c1ccc(-c2ccc(C(F)(F)F)cc2)c(COc2ccc(-c3nc4cc(C(=O)O)ccc4n3C3CCCCC3)cc2)c1 [Example 266, 1-cyclohexyl-2-{4-[3-dimethylcarbamoyl-6-(4-trifluoromethylphenyl)benzyloxy]phenyl}benzimidazole-5-carboxylic acid hydrochloride] | 18 | –
32 | CSc1ccc(-c2ccc(C(=O)N(C)C)cc2COc2ccc(-c3nc4cc(C(=O)O)ccc4n3C3CCCCC3)cc2)cc1 [Example 267, 1-cyclohexyl-2-{4-[3-dimethylcarbamoyl-6-(4-methylthiophenyl)-benzyloxy]phenyl}benzimidazole-5-carboxylic acid hydrochloride] | 14 | –
